Drawing on ChEMBL document CHEMBL1944517, “New inhibitors of dihydroorotate dehydrogenase (DHODH) based on the 4-hydroxy-1,2,5-oxadiazol-3-yl (hydroxyfurazanyl) scaffold” (Eur J Med Chem, 2012), this text covers IC50 for twelve compounds.

This assay deals with Dihydroorotate dehydrogenase (quinone), mitochondrial (Rattus norvegicus, UniProt Q63707). Description: Inhibition of dihydroorotate dehydrogenase in Wistar rat liver mitochondrial/microsomal membranes measured for 5 mins by 2,6-dichlorophenolindophenol reduction-based spectrophotometry. Format: cell membranes, Membrane.
Chain of Dihydroorotate dehydrogenase (quinone), mitochondrial (Q63707 whole entry): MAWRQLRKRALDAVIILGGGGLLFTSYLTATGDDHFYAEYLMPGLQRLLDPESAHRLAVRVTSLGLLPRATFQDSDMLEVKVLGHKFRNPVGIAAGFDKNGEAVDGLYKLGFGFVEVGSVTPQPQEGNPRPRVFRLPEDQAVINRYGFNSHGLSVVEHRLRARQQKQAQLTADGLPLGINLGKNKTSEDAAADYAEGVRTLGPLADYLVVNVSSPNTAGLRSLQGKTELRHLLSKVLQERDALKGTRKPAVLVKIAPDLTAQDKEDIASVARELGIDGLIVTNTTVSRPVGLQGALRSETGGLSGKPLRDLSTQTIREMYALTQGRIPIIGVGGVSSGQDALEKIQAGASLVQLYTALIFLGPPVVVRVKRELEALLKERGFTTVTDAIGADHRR

What is called IC50 is the concentration at which inhibition is half-maximal. Turning to `O=C(Nc1c(F)c(F)c(-c2cccc(C(F)(F)F)c2)c(F)c1F)c1nonc1O`, the midpoint of inhibition, the IC50, lay at 120 nM.

`O=C(Nc1c(F)c(F)c(-c2ccc(C(F)(F)F)cc2)c(F)c1F)c1no[nH]c1=O` gave a half-inhibitory concentration (IC50) of 490 nM.

The compound `O=C(Nc1c(F)cc(-c2ccccc2)cc1F)c1no[nH]c1=O` came in with a half-inhibitory concentration (IC50) of 880 nM.

Regarding `O=C(Nc1c(F)cc(-c2ccc(C(F)(F)F)cc2)cc1F)c1nonc1O`, the 50% inhibitory concentration (IC50) worked out at 2300 nM. This IC50 lies about 2.6-fold higher than the previous one.

`O=C(Nc1ccc(-c2ccccc2)cc1)c1nonc1O` registered a half-maximal inhibitory concentration (IC50) of 11000 nM.

In the case of `O=C(Nc1ccc(-c2cccc(C(F)(F)F)c2)cc1)c1nonc1O`, the midpoint of inhibition, the IC50, lay at 25000 nM. Compared with the last compound, the IC50 is about 2.3-fold higher.

As to `O=C(Nc1ccc(C(F)(F)F)cc1)c1nonc1O`, half-maximal inhibition (IC50) required 4300 nM. This IC50 lies about 5.8-fold lower than the previous one.

Take `O=C(Nc1ccccc1-c1ccccc1)c1no[nH]c1=O`: the IC50 turned out to be 45000 nM.

Regarding `O=C(Nc1ccc(-c2ccc(C(F)(F)F)cc2)cc1)c1nonc1O`, the half-inhibitory concentration (IC50) was 49000 nM. This IC50 and that of the compound before are within 1.5-fold of each other.

In the case of `O=C(Nc1c(F)c(F)c(-c2cccc(OC(F)(F)F)c2)c(F)c1F)c1no[nH]c1=O`, the IC50 was determined as 50 nM.

The compound `O=C(Nc1c(F)cc(-c2cccc(C(F)(F)F)c2)cc1F)c1nonc1O` came in with an IC50 of 870 nM.

For `O=C(Nc1c(F)c(F)c(-c2ccccc2)c(F)c1F)c1no[nH]c1=O`, it took 66 nM to reach half-maximal inhibition (IC50).
